Patent US20050261250A1, “Compositions and methods for inhibiting bone resorption” (Merck & Co., Inc.,, priority 2004, published 2005)

Tests used:
[1] = cited from earlier work
[2] = Autoxidative lability of vitamin D3 as oil or amorphous solid (HPLC); assay type: physicochemical; details: 20-40° C., within hours
Source text: It is also understood that vitamin D can undergo autoxidation through induction by a free radical initiator or spontaneously in solid or solution phase to form a variety of products, some of which have been identified. Representative characterization of vitamin D degradation (and, specifically, vitamin D3 in this instance) in embodiments of compositions of the present invention confirms the autoxidative lability of vitamin D3 in which vitamin D3 was converted to an oil or amorphous solid and exposed to temperatures from 20-40° C. […] At longer exposure times, these absorptions continued to decrease as further reaction occurred.

SMILES: C=C1CC[C@H](O)C/C1=C/C=C1\CCC[C@]2(C)[C@@H]([C@H](C)/C=C/[C@H](C)C(C)C)CC[C@@H]12 [vitamin D2, ergocalciferol]
- aqueous solubility [1]: water insoluble

SMILES: C=C1CC[C@H](O)C/C1=C/C=C1\CCC[C@]2(C)[C@@H]([C@H](C)CCCC(C)C)CC[C@@H]12 [Vitamin D3, cholecalciferol]
- HPLC analysis of vitamin D3 after exposure [2]: extensive destruction
